Like-named read-outs stand apart in the source and are kept apart here. Where a SMILES comes first, the peptide text is derived from it. Bridges are numbered along the chain shown (N, C = ends). [ ]: non-standard residue; d: D form.
Assays:
L. monocytogenes AgrC [1] = target: T1, L. monocytogenes AgrC (Listeria monocytogenes serovar 1/2a, UniProt Q8YAR5); test: Fluorescence (agr-GFP) reporter agonism assay, ΔagrD reporter strain; format: cell-based; parameters: Emax: dose or concentration left out as unconfirmed; conditions: for agonism activity (in words): ΔagrD reporter
Excerpt: (§1) Construction of Listeria agr Reporter Strains. A gene block was designed and purchased from Integrated DNA Technologies to contain an EagI recognition site, the PII promoter of the agr system, the 3′ UTR of hly, super folder GFP, and a SaII recognition site. The gene block was digested with EagI and SaII, cloned into an EagI/SaII-cut pAM401 plasmid resulting in the plasmid pAM401-KW1, and then transformed into E. coli XL1-Blue competent cells. The insertion into pAM401 was confirmed using Kapa polymerase and primers DAP337 and DAP338, and additional confirmation via commercial sequencing. Purified plasmid was transformed into the conjugative E. coli S17 strain, which was used to conjugate to EGD-e and EGD-e ΔagrD to generate the agr-GFP reporter strains EGD-e:pAM401-KW1 and EGD-e ΔagrD:pAM401-KW1. Conjugation was verified using primers DAP337 and DAP338.
(§2) Fluorescence reporter assay protocol. For QS (agr) reporter assays, peptide stock solutions in DMSO (1 mM) were serially diluted in DMSO, and 2 μL of solution was added to each well in a black 96-well plate (polystyrene microtiter plate, Costar). Agonism assays utilized the ΔagrD reporter strain, with 2 μL of 100 μM AIP (final concentration 1 μM) as a positive control and 2 μL of DMSO as a negative control. Antagonism assays utilized the EGD-e reporter strain, with 2 μL of DMSO as a positive control. In both assays, wells containing only BHI media served as negative controls for normalization. An overnight culture of bacteria was diluted 1:50 in fresh BHI, then 198 μL were transferred to each well (excluding the media control wells). Plates were then incubated at 37° C. for 24 hours with shaking at 200 rpm. Fluorescence of GFP (excitation at 500 nm, emission at 540 nm) and OD600 of each well was measured using BioTek Synergy 2 plate reader. Measurements were processed by subtracting background fluorescence (BHI media), correcting by OD600, and the normalizing using the 1 μM AIP or the DMSO control for the agonism and antagonism assays, respectively. Non-linear regression curves were fitted to the data sets in GraphPad Prism 7 by using variable slope (four-parameter) dose-response analysis to obtain potency, efficacy, and statistical information about the activity of tested peptides. Each peptide was tested with three technical replicates and three biological replicates. All data derived from fluorescent reporter strains are represented with data points signifying the mean and error bars signifying the standard deviation from all replicates.
Preparation and Validation of Listeria agr Reporter Strains. In order to facilitate profiling the native AIP and its analogs for agr activity, L. monocytogenes agr GFP reporters were designed and constructed as described above (see Materials and General Methods). Briefly, a plasmid containing the agr promoter region upstream of gfp was transformed into wild-type (EGD-e) and ΔagrD L. monocytogenes strains. The wild-type reporter naturally produces its own AIP and is able to activate AgrC, which may subsequently phosphorylate AgrA for productive binding to DNA and triggering the production of GFP (FIG. 1A). The ΔagrD reporter, lacking the ability to produce its own AIP and thereby activate AgrC, is unable to trigger substantial production of GFP. However, adding exogenous AIP to the ΔagrD reporter results in an increase of fluorescence, indicating agr activity has been restored.

L. monocytogenes AgrC [2] = target: T1, L. monocytogenes AgrC; test: Fluorescence (agr-GFP) reporter antagonism assay, wild-type EGD-e reporter strain; format: cell-based
Excerpt: as §1, §2
Preparation and Validation of Listeria agr Reporter Strains. […] However, adding exogenous AIP to the ΔagrD reporter results in an increase of fluorescence, indicating agr activity has been restored.

[3] = tested on: L. monocytogenes EGD-e ΔagrD; test: Crystal violet biofilm assay, ΔagrD strain (agonists); format: cell-based, Listeria monocytogenes
Protocol: Biofilm assay protocol. Biofilms assays were adapted from previous reports and protocols.^51-52 Overnight cultures of L. monocytogenes EGD-e and ΔagrD were grown in BHI, then diluted 1:100 in LB. For single-point assays, 2 μL of agonists or antagonists at an appropriate concentration were added to wells in a clear 96-well microtiter plates. For dose-response assays, a stock solution of the select peptide were serially diluted in DMSO, then 2 μL of each concentration were transferred to the appropriate wells. Then, 198 μL of bacteria were added to their respective wells, using ΔagrD for agonist wells and EGD-e for antagonist wells. In each plate, additional vehicle controls for baseline biofilm formation of EGD-e and ΔagrD strains (2 μL of DMSO) were included, as well as a media control (200 μL of LB). Plates were incubated at room temperature for 24 hours statically, at which point plates were inverted over a glass waste container and gently shook to remove planktonic bacteria. The wells were gently washed with 200 μL of PBS twice, inverting again over the waste container to remove liquid. Then, 200 μL of 0.1% crystal violet solution (in water) were added to each well and incubated for 30 minutes. The wells were then washed with 200 μL of PBS three more times and left to air dry for 15 minutes. Remaining crystal violet was solubilized by the addition of 100 μL of 95% ethanol in water solution, pipetting up and down to mix, incubated for 10 minutes, then absorbance was read at 595 nm. Absorbance data was processed by normalizing to the EGD-e vehicle control (100%) and the LB media control (0%). Non-linear regression curves were fitted to the data sets in GraphPad Prism 7 by using variable slope (four-parameter) dose-response analysis to obtain potency, efficacy, and statistical information about the activity of tested peptides. Each well was tested with four technical replicates and three biological replicates. All data derived from crystal violet biofilm assays are represented with data points signifying the mean and error bars signifying the standard deviation from all replicates.

[4] = read-out: Max Activation Observed

T1 sequence (Q8YAR5 entry or part of it): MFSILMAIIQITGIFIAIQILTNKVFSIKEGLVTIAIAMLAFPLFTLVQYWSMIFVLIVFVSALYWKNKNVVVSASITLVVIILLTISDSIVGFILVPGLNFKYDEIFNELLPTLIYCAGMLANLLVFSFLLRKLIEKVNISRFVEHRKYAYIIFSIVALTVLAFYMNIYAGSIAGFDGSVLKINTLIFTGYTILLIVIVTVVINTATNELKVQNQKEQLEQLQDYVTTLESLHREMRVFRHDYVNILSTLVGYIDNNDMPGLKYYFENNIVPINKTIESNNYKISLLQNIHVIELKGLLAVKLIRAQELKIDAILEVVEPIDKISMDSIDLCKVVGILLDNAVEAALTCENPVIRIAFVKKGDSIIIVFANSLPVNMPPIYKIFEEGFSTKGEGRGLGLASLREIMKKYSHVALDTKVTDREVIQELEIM

`CSCC[C@@H]1NC(=O)[C@H](C)NC(=O)[C@@H](NC(=O)[C@H](C)N)CSC(=O)[C@H](C(C)C)NC(=O)[C@H](Cc2ccccc2)NC1=O` [AIP F3A, A-(C-A-M-F-V)] (H-ACAMFV; thioester 2-C; N-terminus assumed) was tested, and the Emax (L. monocytogenes AgrC [1]; [4]) was 9.72%, the “agonism activity (in words)” value (L. monocytogenes AgrC [1]) was “abolished agonism activity” and the “antagonism activity (in words)” value (L. monocytogenes AgrC [2]) was “no noticeable antagonism”.

`CSCC[C@@H]1NC(=O)[C@@H](Cc2ccccc2)NC(=O)[C@@H](NC(=O)[C@H](C)N)CSC(=O)[C@H](C(C)C)NC(=O)[C@H](Cc2ccccc2)NC1=O` [AIP F3dF, A-(C-dF-M-F-V)] (H-AC[dF]MFV; thioester 2-C; N-terminus assumed) was tested, and the Emax (L. monocytogenes AgrC [1]; [4]) was 6.63%, the “agonism activity (in words)” value (L. monocytogenes AgrC [1]) was “largely inactive” and the “antagonism activity (in words)” value (L. monocytogenes AgrC [2]) was “largely inactive”.

With `CSCC[C@H]1NC(=O)[C@H](Cc2ccccc2)NC(=O)[C@@H](NC(=O)[C@H](C)N)CSC(=O)[C@H](C(C)C)NC(=O)[C@H](Cc2ccccc2)NC1=O` [AIP M4dM, A-(C-F-dM-F-V)] (H-ACF[dM]FV; thioester 2-C; N-terminus assumed) the increase in potency (L. monocytogenes AgrC [1]; agonism, relative to native AIP) was “three-fold”, the Emax (L. monocytogenes AgrC [1]; [4]) was 111% and the “agonism activity (in words)” value (L. monocytogenes AgrC [1]) was “no effect on agonism”. For the same molecule, the “biofilm formation of ΔagrD strain (FIG. 9A)” value [3] was “increase biofilm formation” and the “biofilm production compared to vehicle controls” value ([3]; 10 μM, ΔagrD bacteria) was “doubled”.

For `CC(C)C[C@@H]1NC(=O)[C@H](C(C)C)NC(=O)[C@@H](NC(=O)[C@@H](N)CO)CSC(=O)[C@H](CC(C)C)NC(=O)[C@H](Cc2c[nH]cn2)NC1=O` [L. weihenstephanensis AIP, S-(C-V-L-H-L), reference compound] (H-SCVLHL; thioester 2-C; N-terminus assumed), the Emax (L. monocytogenes AgrC [1]; read-out: Max Activation) was 11.2%.

For `CSCC[C@@H]1NC(=O)[C@H](CO)NC(=O)[C@@H](NC(=O)[C@H](C)N)CSC(=O)[C@H](C(C)C)NC(=O)[C@H](Cc2ccccc2)NC1=O` [Lm AIP F3S, A-(C-S-M-F-V)] (H-ACSMFV; thioester 2-C; N-terminus assumed), the Emax (L. monocytogenes AgrC [1]; read-out: Max Activation) was 16.1%.

With `CC[C@H](C)[C@@H]1NC(=O)[C@H](Cc2ccccc2)NC(=O)[C@H](CC(=O)O)NC(=O)[C@@H](NC(=O)[C@@H](NC(=O)[C@H](CO)NC(=O)[C@@H](N)Cc2ccc(O)cc2)[C@@H](C)O)CSC(=O)[C@H](CCSC)NC1=O` [Sa AIP-I, Y-S-T-(C-D-F-I-M), reference compound] (H-YSTCDFIM; thioester 4-C) the Emax (L. monocytogenes AgrC [1]; read-out: Max Activation) was 12.2%.

Work on `CC(C)C[C@@H]1NC(=O)[C@H](CO)NC(=O)[C@H](CO)NC(=O)[C@@H](NC(=O)[C@H](C)NC(=O)[C@H](CC(N)=O)NC(=O)[C@@H](NC(=O)CN)C(C)C)CSC(=O)[C@H](Cc2ccccc2)NC1=O` [Sa AIP-II, G-V-N-A-(C-S-S-L-F), reference compound] (H-GVNACSSLF; thioester 5-C) yielded an Emax (L. monocytogenes AgrC [1]; read-out: Max Activation) of 12%.

`CC[C@H](C)[C@H](N)C(=O)N[C@@H](CC(N)=O)C(=O)N[C@H]1CSC(=O)[C@H](CC(C)C)NC(=O)[C@H](CC(C)C)NC(=O)[C@H](Cc2ccccc2)NC(=O)[C@H](C)NC1=O` [Sa AIP-III D4A, I-N-(C-A-F-L-L), reference compound] (H-INCAFLL; thioester 3-C) showed an Emax (L. monocytogenes AgrC [1]; read-out: Max Activation) of 12.3%.

`CC[C@H](C)[C@H](N)C(=O)N[C@@H](CC(N)=O)C(=O)N[C@H]1CSC(=O)[C@H](CC(C)C)NC(=O)[C@H](CC(C)C)NC(=O)[C@H](Cc2ccccc2)NC(=O)[C@H](CC(=O)O)NC1=O` [Sa AIP-III, I-N-(C-D-F-L-L), reference compound] (H-INCDFLL; thioester 3-C) showed an Emax (L. monocytogenes AgrC [1]; read-out: Max Activation) of 11.3%.

For `CC[C@H](C)[C@@H]1NC(=O)[C@H](Cc2ccccc2)NC(=O)[C@H](Cc2ccc(O)cc2)NC(=O)[C@@H](NC(=O)[C@@H](NC(=O)[C@H](CO)NC(=O)[C@@H](N)Cc2ccc(O)cc2)[C@@H](C)O)CSC(=O)[C@H](CCSC)NC1=O` [Sa AIP-IV, Y-S-T-(C-Y-F-I-M), reference compound] (H-YSTCYFIM; thioester 4-C), the “agonism or antagonism activity compared to vehicle (FIG. 1B)” value (L. monocytogenes AgrC [1]; 10 μM, wild-type reporter or ΔagrD reporter) was “minimal efficacy” and the Emax (L. monocytogenes AgrC [1]; read-out: Max Activation) was 9.81%.

`CC(C)[C@H](NC(=O)[C@H](CO)NC(=O)[C@H](C)N)C(=O)N[C@H]1CSC(=O)[C@H](Cc2ccccc2)NC(=O)[C@H](Cc2ccc(O)cc2)NC(=O)[C@H](C)NC(=O)[C@H](C)NC1=O` [Se AIP-I D1AS6A, A-S-V-(C-A-A-Y-F), reference compound] (H-ASVCAAYF; thioester 4-C) showed an Emax (L. monocytogenes AgrC [1]; read-out: Max Activation) of 12.4%.

`C[C@H](N)C(=O)N[C@@H](CO)C(=O)N[C@@H](C)C(=O)N[C@H]1CSC(=O)[C@H](Cc2ccccc2)NC(=O)[C@H](Cc2ccc(O)cc2)NC(=O)[C@H](C)NC(=O)[C@H](C)NC1=O` [Se AIP-I D1AV3AS6A, A-S-A-(C-A-A-Y-F), reference compound] (H-ASACAAYF; thioester 4-C) showed an Emax (L. monocytogenes AgrC [1]; read-out: Max Activation) of 12.1%.

With `CC(C)[C@H](NC(=O)[C@H](CO)NC(=O)[C@@H](N)CC(=O)O)C(=O)N[C@H]1CSC(=O)[C@H](Cc2ccccc2)NC(=O)[C@H](Cc2ccc(O)cc2)NC(=O)[C@H](CO)NC(=O)[C@H](C)NC1=O` [Se AIP-I, D-S-V-(C-A-S-Y-F), reference compound] (H-DSVCASYF; thioester 4-C) the Emax (L. monocytogenes AgrC [1]; read-out: Max Activation) was 8.65%.

With `CC(C)C[C@@H]1NC(=O)[C@H](Cc2ccc(O)cc2)NC(=O)[C@H](CC(N)=O)NC(=O)[C@H](CO)NC(=O)[C@@H](NC(=O)[C@@H]2CCCN2C(=O)[C@H](CC(N)=O)NC(=O)[C@H](Cc2ccc(O)cc2)NC(=O)[C@H](CCCCN)NC(=O)[C@H](CO)NC(=O)[C@H](C)NC(=O)[C@@H](N)CC(N)=O)CSC1=O` [Se AIP-II, N-A-S-K-Y-N-P-(C-S-N-Y-L), reference compound] (H-NASKYNPCSNYL; thioester 8-C) the Emax (L. monocytogenes AgrC [1]; read-out: Max Activation) was 8.45%.

For `CC(C)C[C@@H]1NC(=O)[C@H](Cc2ccc(O)cc2)NC(=O)[C@H](CO)NC(=O)[C@H](C)NC(=O)[C@@H](NC(=O)[C@@H]2CCCN2C(=O)[C@H](CC(N)=O)NC(=O)[C@H](Cc2ccc(O)cc2)NC(=O)[C@H](CCCCN)NC(=O)[C@H](C)NC(=O)[C@H](C)NC(=O)[C@@H](N)CC(N)=O)CSC1=O` [Se AIP-III, N-A-A-K-Y-N-P-(C-A-S-Y-L), reference compound] (H-NAAKYNPCASYL; thioester 8-C), the Emax (L. monocytogenes AgrC [1]; read-out: Max Activation) was 8.73%.

A-(C-F-M-A-V) [AIP F5A] was tested, and the “Max Activation Observed” value (L. monocytogenes AgrC [1]; Table 6, normalized with 1 μM AIP (100%) and media (0%) in ΔagrD reporter) was 6.37%, the “agonism activity (in words)” value (L. monocytogenes AgrC [1]) was “abolished agonism activity” and the “antagonism activity (in words)” value (L. monocytogenes AgrC [2]) was “no noticeable antagonism”.
